In this assay the target is recombinant eIF4E (Homo sapiens (Human), UniProt P06730). Briefly: Fluorescence polarization competition assay for eIF4E binding potency. The essentials:
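Protein and fluorescent cap-analog probe (EDA-m7GDP-ATTO-550) were mixed first for 5 min, after which serially diluted compound was added to final 75 nM eIF4E, 20 nM probe, 1% DMSO. Reactions equilibrated 30 min at room temperature before polarization was measured.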
For orientation: In fluorescence polarisation assays a small probe gives low polarisation when free and higher when bound to something large.

Setting [1] is: fluorescence polarization competition, 75 nM recombinant eIF4E, 20 nM EDA-m7GDP-ATTO-550, IC50 class, read-out: elF4E FP.
Setting [2] is: inhibition of eIF4E/EDA-m7GDP-ATTO-550 binding by 50%, Table 4B calculated values, read-out: IC50.
Setting [3] is: inhibition of eIF4E/EDA-m7GDP-ATTO-550 binding, calculated IC50 values, Table 4B, read-out: IC50.

Where two headings read alike, the source gives them in different places. Where only a bound is given, the exact number is not on record here.

Sequence of recombinant eIF4E (P06730 whole entry): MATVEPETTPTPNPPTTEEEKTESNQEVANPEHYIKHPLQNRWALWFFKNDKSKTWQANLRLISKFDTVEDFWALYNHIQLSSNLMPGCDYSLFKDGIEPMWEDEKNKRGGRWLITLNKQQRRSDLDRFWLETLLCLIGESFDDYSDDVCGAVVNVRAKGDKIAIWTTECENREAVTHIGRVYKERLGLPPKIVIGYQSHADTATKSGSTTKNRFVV

For `Cc1nc(N2CCN(C)C3CC32)c(C#N)c2c(=O)n(CCOc3ccc(Cl)cc3-c3ccnc4c(C(=O)O)csc34)c(C)nc12` (centres unmarked) [compound 603], the IC50 by setting is: under setting [1], under 50 nM; under setting [2], 11.7 nM.

Turning to `Cc1cc(-c2cc(Cl)ccc2OCCn2c(C)nc3cnc(-c4ccccc4C)c(C#N)c3c2=O)c2scc(C(=O)O)c2n1` [compound 944], the IC50 reads like this: under setting [1], under 50 nM; under setting [2], 46.2 nM.

Turning to `COCCN1CCN(c2c(C(F)(F)F)cc3nc(C)n(CCOc4ccc(Cl)cc4-c4ccnc5c(C(=O)O)csc45)c(=O)c3c2C#N)CC1` [compound 1243], the IC50 was under 50 nM under setting [1] and 5.55 nM under setting [3].

As to `Cc1cc(-c2cc(Cl)ccc2OCCn2c(C)nc3cc(C(F)(F)F)c(C4CCOCC4)c(C#N)c3c2=O)c2scc(C(=O)O)c2n1` [compound 431], the IC50 under setting [1] lay within 50 to 1000 nM and the IC50 under setting [2] is 226 nM.

As for `COCc1ncc2nc(C)n(CCOc3ccc(Cl)cc3-c3cc(C)nc4c(C(=O)O)csc34)c(=O)c2c1C#N` [compound 1066], the IC50 under setting [1] was in the range of 50 to 1000 nM and the IC50 under setting [2] is 57.4 nM.

Regarding `Cc1cc(S(=O)(=O)NC(=O)c2csc3c(-c4cc(Cl)ccc4C#CCn4c(C)nc5cnc(N(C)C6CCN(CC(C)(F)F)CC6)c(C#N)c5c4=O)ccnc23)ccn1` [compound 1682], the IC50 under setting [3] was 15.1 nM.

On to `Cc1nc2cnc(N(C)C3CCN(CC(F)(F)F)CC3)c(C#N)c2c(=O)n1CC#Cc1ccc(Cl)cc1-c1ccnc2c(C(=O)NS(=O)(=O)CCC#N)csc12` [compound 1671], for which, under setting [3], the IC50 was 4.14 nM.

Consider `Cc1cc(-c2cc(Cl)ccc2OCCn2c(C)nc3cnc(N4CC(OCC(F)F)C4)c(C#N)c3c2=O)c2scc(C(=O)O)c2n1` [compound 1043], for which the IC50 reads like this: under setting [1], under 50 nM; under setting [2], 3.98 nM.

In the case of `Cc1nc2cnc(N3CCN(CCOC(F)(F)F)CC3)c(C#N)c2c(=O)n1CC#Cc1ccc(Cl)cc1-c1ccnc2c(C(=O)O)csc12` [compound 1161], the IC50 by setting is: under setting [1], under 50 nM; under setting [2], 19.5 nM.

For `Cc1cc(-c2cc(Cl)ccc2OCCn2c(C)nc3cnc(-c4ccc(C)c(O)c4)c(C#N)c3c2=O)c2scc(C(=O)O)c2n1` [compound 1227], the IC50 is, setting by setting: under setting [1], under 50 nM; under setting [3], 12.8 nM.

On to `Cc1nc2cnc(N(C)C3CCN(C4CC(F)(F)C4)CC3)c(C#N)c2c(=O)n1CC#Cc1ccc(Cl)cc1-c1ccnc2c(C(=O)NS(=O)(=O)c3ccncc3)csc12` [compound 1111], for which the IC50 by setting is: under setting [1], under 50 nM; under setting [2], 5.71 nM.

As for `Cc1cc(-c2cc(Cl)ccc2OCCn2c(C)nc3ccc(N4CCN(C)CC4)cc3c2=O)c2scc(C(=O)O)c2n1` [compound 811], under setting [1], the IC50 was 50 to 1000 nM.

Take `Cc1cc(-c2cc(Cl)ccc2OCCn2c(C)nc3cc(C(F)(F)F)c(Br)c(C#N)c3c2=O)c2scc(C(=O)O)c2n1` [compound 876]: the IC50 was 50 to 1000 nM under setting [1] and 73.3 nM under setting [2].

Turning to `CCN(c1ncc2nc(C)n(CC#Cc3ccc(Cl)cc3-c3ccnc4c(C(=O)O)csc34)c(=O)c2c1C#N)C1CCN([C@H]2C[C@@H](OC(F)(F)F)C2)CC1` [compound 1775], under setting [3], the IC50 is 32.1 nM.

In the case of `Cc1nc2cnc(N3CCN(CC(F)(F)F)CC3)c(C#N)c2c(=O)n1CC#Cc1ccc(Cl)cc1-c1ccnc2c(C(=O)NS(C)(=O)=O)csc12` [compound 1362], the IC50 under setting [3] is 14.1 nM.

On to `Cc1nc2cnc(C3CC3)c(C#N)c2c(=O)n1CCOc1ccc(Cl)cc1-n1cnc2c(C(=O)O)cccc21` [compound 756], for which the IC50 is, setting by setting: under setting [1], under 50 nM; under setting [2], 43.2 nM.

For the molecule `Cc1nc2cnc(N(C)C3CCN(C4CC(F)(F)C4)CC3)c(C#N)c2c(=O)n1CC#Cc1ccc(Cl)cc1-c1ccnc2c(C(=O)NS(=O)(=O)c3cccnc3)csc12` [compound 1110], the IC50 is under 50 nM under setting [1] and 7.2 nM under setting [2].

Take `CCc1cccc(-c2c(C(F)(F)F)cc3nc(C)n(CCOc4ccc(Cl)cc4-c4cc(C)nc5c(C(=O)O)csc45)c(=O)c3c2C#N)n1` [compound 776]: the IC50 is, setting by setting: under setting [1], under 50 nM; under setting [2], 36.5 nM.

As for `Cc1nc2cnc(N3CCC(C)(N(C)CC(F)F)CC3)c(C#N)c2c(=O)n1CC#Cc1ccc(Cl)cc1-c1ccnc2c(C(=O)O)csc12` [compound 1414], the IC50 under setting [3] is 15.3 nM.

`Cc1cc(-c2cc(Cl)ccc2OCCn2c(C)nc3cc(C(F)(F)F)c(C4CC4)c(C#N)c3c2=O)c2scc(C(=O)O)c2n1` [compound 1049]: the IC50 was under 50 nM under setting [1] and 9.35 nM under setting [2].

For the molecule `Cc1nc2cnc(N3CCN(CCS(C)(=O)=O)CC3)c(C#N)c2c(=O)n1CCOc1ccc(Cl)cc1-c1ccnc2c(C(=O)O)csc12` [compound 1339], the IC50 under setting [3] is 36.4 nM.

For `N#Cc1cccc2nc(C(F)F)n(CCOc3ccc(Cl)cc3-c3cccc(C(=O)O)c3)c(=O)c12` [compound 1973], the IC50 under setting [3] was 14.3 nM.

For the molecule `Cc1sc2c(-c3cc(Cl)ccc3OCCn3c(C)nc4cnc(N5CCN(C)CC5)c(C#N)c4c3=O)ccnc2c1C(=O)O` [compound 1282], the IC50 under setting [3] is 38.2 nM.

In the case of `Cc1nc2cc(C#N)c(F)c(C#N)c2c(=O)n1CCOc1ccc(Cl)cc1-c1ccnc2c(C(=O)O)csc12` [compound 240], the IC50 is, setting by setting: under setting [1], under 50 nM; under setting [2], 9.78 nM.

`Cc1cccc(-c2c(C(F)(F)F)cc3nc(C)n(CCOc4ccc(Cl)cc4-c4cc(C)nc5c(C(=O)O)csc45)c(=O)c3c2C#N)n1` [compound 675]: the IC50 is, setting by setting: under setting [1], under 50 nM; under setting [2], 7.77 nM.

On to `Cc1cc(-c2cc(Cl)ccc2OCCn2c(C)nc3cc(C(F)(F)F)c(C4=CCOCC4)c(C#N)c3c2=O)c2scc(C(=O)O)c2n1` [compound 429], for which the IC50 under setting [1] was under 50 nM.

Take `Cc1nc2cnc(N3CCN(C)CC3)c(C#N)c2c(=O)n1CCOc1ccc(Cl)cc1-c1ccnc2c(C(=O)O)csc12` [compound 707]: the IC50 runs as follows: under setting [1], under 50 nM; under setting [2], 17.8 nM.

As to `Cc1nc2c(N3CCN(CCOC(F)(F)F)CC3)ncc(C#N)c2c(=O)n1CCOc1ccc(Cl)cc1-c1ccnc2c(C(=O)O)csc12` [compound 1395], the IC50 under setting [3] was 29.6 nM.

In the case of `Cc1nc2cnc(C#CCN(C)C3(C)CC3)c(C#N)c2c(=O)n1CCOc1ccc(Cl)cc1-c1ccnc2c(C(=O)O)csc12` [compound 1346], the IC50 under setting [3] was 19.7 nM.

In the case of `Cc1nc2cnc(N(C)C3CCN(C(C)(C)CF)CC3)c(C#N)c2c(=O)n1CCOc1ccc(Cl)cc1-c1ccnc2c(C(=O)O)csc12` [compound 1429], the IC50 under setting [3] is 17.8 nM.

Take `O=C(O)c1cccc(-c2cc(Cl)ccc2OCCn2cnc3ccccc3c2=O)c1` [compound 11]: the IC50 runs as follows: under setting [1], over 1000 nM; under setting [2], 6850 nM.

Regarding `Cc1nc2cc(C(F)(F)F)c(N3CCN(CCC(F)(F)F)CC3)c(C#N)c2c(=O)n1CCOc1ccc(Cl)cc1-c1ccnc2c(C(=O)O)csc12` [compound 1293], the IC50 under setting [3] is 35.1 nM.

Consider `O=C(O)c1cccc(-c2cc(Cl)ccc2OCCn2c(Nc3ccccc3)nc3c(Cl)nccc3c2=O)c1` [compound 2001], for which, under setting [3], the IC50 was 65800 nM.

Take `Cc1nc2cnc(N3CCC(N4CCC(F)(F)CC4)CC3)c(C#N)c2c(=O)n1CC#Cc1ccc(Cl)cc1-c1ccnc2c(C(=O)O)csc12` [compound 1180]: the IC50 under setting [1] is under 50 nM.

`Cc1nc2cnc(N3CC4(CN(CCF)C4)C3)c(C#N)c2c(=O)n1CC#Cc1ccc(Cl)cc1-c1ccnc2c(C(=O)O)csc12` [compound 892]: the IC50 by setting is: under setting [1], under 50 nM; under setting [2], 36 nM.

Consider `Cc1nc2cc(C(F)(F)F)c(N3CCN(C)CC3)c(C#N)c2c(=O)n1CCSc1ccc(Cl)cc1-c1ccnc2c(C(=O)O)csc12` [compound 1269], for which, under setting [3], the IC50 was 66.6 nM.

Turning to `CCC(F)(F)CN1CCC(N(C)c2ncc3nc(C)n(COCc4ccc(Cl)cc4-c4ccnc5c(C(=O)O)csc45)c(=O)c3c2C#N)CC1` [compound 1168], the IC50 under setting [1] was under 50 nM and the IC50 under setting [2] is 13 nM.

Regarding `Cc1nc2cc(CN(C)CCF)c(OC(F)F)c(C#N)c2c(=O)n1CCOc1ccc(Cl)cc1-c1ccnc2c(C(=O)O)csc12` [compound 1278], the IC50 under setting [3] was 10.6 nM.

For the molecule `Cc1nc2cc(C(F)(F)F)c(CCN(C)C)c(C#N)c2c(=O)n1CCOc1ccc(Cl)cc1-c1ccnc2ccsc12` [compound 1255], the IC50 under setting [3] is 150 nM.

Turning to `Cc1nc2c(C(F)F)ccc(C#N)c2c(=O)n1CCOc1ccc(Cl)cc1-c1ccnc2c(C(=O)O)csc12` [compound 360], the IC50 by setting is: under setting [1], under 50 nM; under setting [2], 42.6 nM.

As to `Cc1nc2cnc(N(C)[C@H]3CC[C@H](N(C)CCF)CC3)c(C#N)c2c(=O)n1CC#Cc1ccc(Cl)cc1-c1ccnc2c(C(=O)O)csc12` [compound 1229], the IC50 by setting is: under setting [1], under 50 nM; under setting [3], 10.7 nM.

For the molecule `Cc1nc2cnc(N(C)C3CCN(CC(F)F)CC3)c(C#N)c2c(=O)n1CC#Cc1ccc(Cl)cc1-c1ccnc2c(C(=O)NS(=O)(=O)CC(F)(F)F)csc12` [compound 1597], under setting [3], the IC50 is 22.1 nM.

Consider `CCCc1cc(-c2cc(Cl)ccc2OCCn2c(C)nc3cnc(C4CC4)c(C#N)c3c2=O)c2scc(C(=O)O)c2n1` [compound 1076], for which the IC50 is, setting by setting: under setting [1], under 50 nM; under setting [2], 24.5 nM.

For `Cc1cc(-c2cc(Cl)ccc2OCCn2c(C)nc3c(C)c(C(F)(F)F)cc(C#N)c3c2=O)c2scc(C(=O)O)c2n1` [compound 364], the IC50 is 50 to 1000 nM under setting [1] and 107 nM under setting [2].

For the molecule `Cc1nc2cnc(N(C)C3CCN(CC(F)F)CC3)c(C#N)c2c(=O)n1CC#Cc1ccc(Cl)cc1-c1ccnc2c(C(=O)NS(=O)(=O)c3ccccn3)csc12` [compound 1566], the IC50 under setting [3] is 4.39 nM.

With `Cc1cc(-c2cc(Cl)ccc2OCCn2c(C)nc3cc(Cl)c(N4CC5(CCC5)C4)c(C#N)c3c2=O)c2scc(C(=O)O)c2n1` [compound 1950], under setting [3], the IC50 was 41.7 nM.

Take `CCOP(=O)(OCC)c1csc2c(-c3cc(Cl)ccc3OCCn3c(C)nc4cc(C(F)(F)F)c(N5CCN(C)CC5)c(C#N)c4c3=O)ccnc12` [compound 1612]: the IC50 under setting [3] is 13.7 nM.

These data come from US11286268B1, “EIF4E-inhibiting compounds and methods” (EFFECTOR THERAPEUTICS, INC., priority 2019, dated 2022).
